This is an account of results in ChEMBL document CHEMBL4742385 (2019).

SMILES strings stand for the structures.

In assay [1] the target is Cyclin-C/Cyclin-dependent kinase 19 (Homo sapiens) (UniProt Q9BWU1+P24863). The assay can be described thus: Inhibition of humanGST-tagged CDK19/Cyc C expressed in Sf21 cells at 1 uM measured after 1 hr by fluorescence plate reader relative to control.
For assay [2], the target named is CDK8/Cyclin C (Homo sapiens) (UniProt P49336+P24863). Briefly: Inhibition of human CDK8/Cyc C expressed in Sf21 cells at 1 uM measured after 1 hr by fluorescence plate reader relative to control.
The subject of another assay is SW480. The assay can be described thus: Antitumor activity against human SW480 cells xenografted in BALB/c nude mouse assessed as inhibition of tumor growth at 50 mg/kg, po administered once daily measured after 14 days relative to control. In kind it is functional. To be noted: time 14 day. On the technique in general: In xenograft studies the graft and the host belong to different species.

Another assay concerns RPMI-8226. Briefly: Antiproliferative activity against human RPMI-8226 assessed as inhibition of cell growth at 1 uM after 8 days measured after Celltiter-Glo assay relative to control. The format is functional. To be noted: Homo sapiens, RPMI-8226, 192 h, time 8 day. (ATP-based viability assays read luminescence as a measure of living cells.)

For orientation: inhibition means the drop in the measured response relative to a control, in per cent. A word on the T/C: it is the ratio of treated to control. In the case of `Cn1cc(-c2c(F)cncc2/C=C/C(=O)Nc2ccc(CN3CC(F)(F)C3)cc2)cn1`, the inhibition is 102% in assay [1] and 103% in assay [2]. Besides, the T/C with SW480 is 36%. Moreover, the inhibition at 1 µM in the assay on RPMI-8226 was found to be 65%.

Take `Cn1cc(-c2ccncc2/C=C/C(=O)Nc2ccc3c(c2)CN(CC(F)(F)F)CC3)cn1`: the inhibition in assay [1] was determined as 100%; in assay [2] it was 102%. The T/C in the assay on SW480 is given as 43%. Further, the inhibition at 1 µM with RPMI-8226 was determined as 59%.

For the molecule `O=C(/C=C/c1cnccc1-c1cnn(C2CC2)c1)Nc1ccc(CN2CC(F)(F)C2)cc1`, the T/C in the assay on SW480 worked out at 51%. Also, the inhibition at 1 µM with RPMI-8226 came out at 58%.

Regarding `O=C(/C=C/c1cncc(F)c1-c1cnn(C2CC2)c1)Nc1ccc(CN2CCOCC2)cc1F`, the inhibition in assay [1] is 96%; in assay [2], 101%. Also, in the assay on SW480, the T/C came out at 36%. Also, the inhibition at 1 µM in the assay with RPMI-8226 was 64%.

Regarding `O=C(/C=C/c1cncc(F)c1-c1cnn(C2CC2)c1)Nc1ccc2c(c1)CN(CC(F)(F)F)C2`, the inhibition turned out to be 100% in assay [1] and 104% in assay [2]. Moreover, the T/C with SW480 amounted to 29%. Besides, the inhibition at 1 µM in the assay with RPMI-8226 came to 58%.

Turning to `O=C(/C=C/c1cnccc1-c1cnn(C2CC2)c1)Nc1ccc(CN2CCOCC2)cc1`, the inhibition in assay [1] worked out at 102%; in assay [2] it was 92%. Besides, in the assay on SW480, the T/C was found to be 37%. In the assay with RPMI-8226, the inhibition at 1 µM was found to be 53%.

Turning to `O=C(/C=C/c1cnccc1-c1cnn(C2CC2)c1)Nc1ccc(CN2CCOCC2)cc1F`, the inhibition in assay [1] and in assay [2] was 99% in each case. Also, the T/C in the assay with SW480 was found to be 36%. For the same molecule, in the assay on RPMI-8226, the inhibition at 1 µM was 53%.

In the case of `COC1CN(Cc2ccc(NC(=O)/C=C/c3cncc(F)c3-c3cnn(C4CC4)c3)c(F)c2)C1`, the values for the inhibition in assay [1] and in assay [2] were 96% and 103%, respectively. Also, the inhibition at 1 µM in the assay on RPMI-8226 turned out to be 63%.

Consider `COc1ccsc1-c1ccncc1/C=C/C(=O)Nc1ccc(CN2CCOCC2)cc1`, for which the inhibition in assay [1] amounted to 100%; in assay [2] it was 97%. The inhibition at 1 µM in the assay on RPMI-8226 turned out to be 52%.

In the case of `Cn1cc(-c2ccncc2/C=C/C(=O)Nc2ccc3c(c2)CCN(CC(F)(F)F)C3)cn1`, the inhibition in assay [1] came to 101%; in assay [2], 98%. In addition, the inhibition at 1 µM with RPMI-8226 turned out to be 65%.

As for `O=C(/C=C/c1cnccc1-c1cnn(C(F)F)c1)Nc1ccc(CN2CCOCC2)cc1`, the inhibition was found to be 100% in assay [1] and 98% in assay [2]. Further, in the assay with RPMI-8226, the inhibition at 1 µM amounted to 53%.

For the molecule `CC(=O)n1cc(-c2ccncc2/C=C/C(=O)Nc2ccc(CN3CCOCC3)cc2)cn1`, the inhibition in assay [1] is 101%; in assay [2], 96%. Moreover, the inhibition at 1 µM in the assay with RPMI-8226 was 65%.

As for `Cn1cnc2ccc(-c3ccncc3/C=C/C(=O)Nc3ccc(CN4CCOCC4)cc3)cc21`, the inhibition in assay [1] and in assay [2] was 102% each time. The inhibition at 1 µM with RPMI-8226 worked out at 65%.

With `C[C@@H]1CN(Cc2ccc(NC(=O)/C=C/c3cnccc3-c3cnn(C)c3)cc2)C[C@H](C)O1`, the inhibition in assay [1] worked out at 97%; in assay [2], 101%. Also, the inhibition at 1 µM with RPMI-8226 was 58%.

For `CCN1CCc2cc(NC(=O)/C=C/c3cnccc3-c3cnn(C)c3)ccc2C1`, the inhibition in assay [1] came to 95%; in assay [2], 96%. For the same molecule, the inhibition at 1 µM in the assay on RPMI-8226 was determined as 58%.

As to `Cn1cc(-c2ccncc2/C=C/C(=O)Nc2ccc(CN3CCOCC3)c(F)c2)cn1`, the inhibition in assay [1] worked out at 97%; in assay [2], 99%. The inhibition at 1 µM in the assay on RPMI-8226 stood at 62%.

As for `Cn1cc(-c2ccncc2/C=C/C(=O)Nc2ccc3c(c2)OCCO3)cn1`, the inhibition is 97% in assay [1] and 100% in assay [2]. Besides, the inhibition at 1 µM in the assay with RPMI-8226 was found to be 59%.

Consider `O=C(/C=C/c1cnccc1-c1ccc2nccn2c1)Nc1ccc(CN2CCOCC2)cc1`, for which the inhibition in assay [1] came out at 100%; in assay [2] it was 101%. The inhibition at 1 µM in the assay with RPMI-8226 turned out to be 52%.

Turning to `Cn1cc(-c2ccncc2/C=C/C(=O)Nc2ccc(CN3CCCC3CO)cc2)cn1` (stereo not given), the inhibition in assay [1] is 93%; in assay [2] it was 104%. Besides, in the assay on RPMI-8226, the inhibition at 1 µM was found to be 52%.

With `Cn1cc(-c2ccncc2/C=C/C(=O)Nc2ccc3ncsc3c2)cn1`, the inhibition in assay [1] came to 90%; in assay [2], 94%. The inhibition at 1 µM in the assay with RPMI-8226 amounted to 53%.

Turning to `O=C(/C=C/c1cnccc1-c1cn[nH]c1)Nc1ccc(CN2CCOCC2)cc1`, the inhibition in assay [1] came out at 99%; in assay [2] it was 100%. Further, the inhibition at 1 µM in the assay with RPMI-8226 is 61%.

As for `Cn1cc(-c2ccncc2/C=C/C(=O)Nc2ccc(CN3CC4CC3CO4)cc2)cn1` (stereo not given), the inhibition in assay [1] came to 96%; in assay [2] it was 100%. Moreover, in the assay on RPMI-8226, the inhibition at 1 µM was found to be 58%.

On to `Cn1cc(-c2ccncc2/C=C/C(=O)Nc2ccc(CN3CCOCC3)c(C#N)c2)cn1`, for which the values for the inhibition in assay [1] and in assay [2] were 99% and 100%, respectively. Besides, the inhibition at 1 µM in the assay on RPMI-8226 amounted to 54%.

Take `Cn1cc(-c2ccncc2/C=C/C(=O)Nc2ccc3cnccc3c2)cn1`: the inhibition turned out to be 99% in assay [1] and 96% in assay [2]. Further, the inhibition at 1 µM with RPMI-8226 came to 62%.

For the molecule `O=C(/C=C/c1cnccc1-c1cncs1)Nc1ccc(CN2CCOCC2)cc1`, the values for the inhibition in assay [1] and in assay [2] were 97% and 94%, respectively. Also, in the assay on RPMI-8226, the inhibition at 1 µM worked out at 52%.

As to `Cn1cc(-c2ccncc2/C=C/C(=O)Nc2ccc3c(c2)CN(CC(F)(F)F)C3)cn1`, the figures for the inhibition in assay [1] and in assay [2] were 102% and 98%, respectively. For the same molecule, the T/C with SW480 is given as 31%. In the assay with RPMI-8226, the inhibition at 1 µM came out at 64%.

With `CC(C)(O)Cc1ccc(NC(=O)/C=C/c2cncc(F)c2-c2cnn(C3CC3)c2)c(F)c1`, the inhibition in assay [1] was determined as 99%; in assay [2], 102%. For the same molecule, the inhibition at 1 µM in the assay on RPMI-8226 was found to be 60%.

Take `O=C(/C=C/c1cnccc1-c1cnn2ccccc12)Nc1ccc(CN2CCOCC2)cc1`: the inhibition in assay [1] amounted to 97%; in assay [2], 98%. Also, in the assay on RPMI-8226, the inhibition at 1 µM was 55%.
